Our source for the IC50 values is US20240076293A1, “Compositions and Methods for Inhibiting Fibrosis, Inflammation and Cancer” (Georgia Tech Research Corporation, priority 2020, published 2024).

Common to all, as to type: cell-based
Data set [1] can be described thus: Anti-proliferation IC50, MRC-5. The note with it: human, MRC-5 cells; Table 1, compounds of formula I; NI = no inhibition up to 500 μM.
The next data set deals with A549. The experiment in a line: Anti-proliferation IC50, A549. The note with it: Homo sapiens, Table 1, compounds of formula I, NI = no inhibition up to 500 μM, read-out: A549 (IC50).
The next data set deals with Hep-G2. The experiment in a line: Anti-proliferation IC50, Hep-G2. The following applies: Homo sapiens, HepG2; Table 1, compounds of formula I; NI = no inhibition up to 500 μM; read-out: Hep-G2 (IC50).
The test system of a further data set is VERO. The experiment in a line: Anti-proliferation IC50, VERO. The note with it: Chlorocebus sabaeus, Table 1, compounds of formula I, NI = no inhibition up to 500 μM, read-out: VERO (IC50).

Some results are limits rather than exact numbers.

For orientation: IC50 means the point on the concentration scale where inhibition reaches its midpoint. Take `CCC1OC(=O)[C@H](C)[C@H](OC2C[C@@](C)(OC)[C@@H](O)[C@H](C)O2)[C@H](C)[C@@H](OC2O[C@H](C)C[C@H](N(C)Cc3cn(CCc4ccc(-n5cc(C)ccc5=O)cc4)nn3)[C@H]2O)[C@@](C)(OC)C[C@@H](C)C(=O)[C@H](C)[C@@H](O)[C@]1(C)O` (some centres unmarked) [Compound 12b]: the IC50 is 84 ± 4.5 µM in data set [1], 116 ± 4.1 µM with A549, 122 ± 3.7 µM in the data set on Hep-G2 and 104 ± 20.3 µM in the data set on VERO.

Consider `CCC1OC(=O)[C@H](C)[C@H](OC2C[C@@](C)(OC)[C@@H](O)[C@H](C)O2)[C@H](C)[C@@H](OC2O[C@H](C)C[C@H](N(C)Cc3ccc(-c4cn(CCc5ccc(-n6cc(C)ccc6=O)cc5)nn4)cc3)[C@H]2O)[C@@](C)(OC)C[C@@H](C)C(=O)[C@H](C)[C@@H](O)[C@]1(C)O` (some centres unmarked) [Compound 12c], for which the IC50 in data set [1] was determined as 13.1 ± 1.2 µM; in the data set on A549, 35.3 ± 1.5 µM; with Hep-G2, 28.1 ± 1.8 µM; with VERO, 14.2 ± 0.3 µM.

For `CCC1OC(=O)[C@H](C)[C@H](OC2C[C@@](C)(OC)[C@@H](O)[C@H](C)O2)[C@H](C)[C@@H](OC2O[C@H](C)C[C@H](N(C)CCCCc3ccc(-n4cc(C)ccc4=O)cc3)[C@H]2O)[C@@](C)(OC)C[C@@H](C)C(=O)[C@H](C)[C@@H](O)[C@]1(C)O` (some centres unmarked) [Compound 14a], the IC50 stood at 15.7 ± 2.3 µM in data set [1], 16.3 ± 1.6 µM in the data set on A549, 30.9 ± 1.4 µM in the data set with Hep-G2 and 19 ± 3.7 µM in the data set on VERO.

Take `CCC1OC(=O)[C@H](C)[C@H](OC2C[C@@](C)(OC)[C@@H](O)[C@H](C)O2)[C@H](C)[C@@H](OC2O[C@H](C)C[C@H](N(C)Cc3cn(CCCCc4ccc(-n5cc(C)ccc5=O)cc4)nn3)[C@H]2O)[C@@](C)(OC)C[C@@H](C)C(=O)[C@H](C)[C@@H](O)[C@]1(C)O` (some centres unmarked) [Compound 14b]: the half-maximal inhibitory concentration (IC50) in data set [1] was found to be 32.8 ± 5.1 µM; in the data set with A549, 28.7 ± 3.4 µM; with Hep-G2, 44.8 ± 3.6 µM; in the data set on VERO it was 33.3 ± 1.9 µM.

With `CCC1OC(=O)[C@H](C)[C@H](OC2C[C@@](C)(OC)[C@@H](O)[C@H](C)O2)[C@H](C)[C@@H](OC2O[C@H](C)C[C@H](N(C)Cc3ccc(-c4cn(CCCCc5ccc(-n6cc(C)ccc6=O)cc5)nn4)cc3)[C@H]2O)[C@@](C)(OC)C[C@@H](C)C(=O)[C@H](C)[C@@H](O)[C@]1(C)O` (some centres unmarked) [Compound 14c], the IC50 in data set [1] turned out to be 11.6 ± 0.3 µM; in the data set on A549, 10.9 ± 0.4 µM; in the data set with Hep-G2, 36.4 ± 6.6 µM; in the data set on VERO, 12.4 ± 0.2 µM.

For `CCC1OC(=O)[C@H](C)[C@H](OC2C[C@@](C)(OC)[C@@H](O)[C@H](C)O2)[C@H](C)[C@@H](OC2O[C@H](C)C[C@H](N(C)CC#Cc3ccc(-n4cc(C)ccc4=O)cc3)[C@H]2O)[C@@](C)(OC)C[C@@H](C)C(=O)[C@H](C)[C@@H](O)[C@]1(C)O` (some centres unmarked) [Compound 19a], the concentration for half-maximal inhibition (IC50) in data set [1] stood at 82.6 ± 0.3 µM; in the data set on A549, 44.1 ± 10.8 µM; in the data set with Hep-G2, 50.7 ± 3 µM; in the data set on VERO, 55.5 ± 2.6 µM.

For the compound `CCC1OC(=O)[C@H](C)[C@H](OC2C[C@@](C)(OC)[C@@H](O)[C@H](C)O2)[C@H](C)[C@@H](OC2O[C@H](C)C[C@H](N(C)CCC#Cc3ccc(-n4cc(C)ccc4=O)cc3)[C@H]2O)[C@@](C)(OC)C[C@@H](C)C(=O)[C@H](C)[C@@H](O)[C@]1(C)O` (some centres unmarked) [Compound 19b], the IC50 is > 500 µM in data set [1], 59.9 ± 0.8 µM with A549, 60.9 ± 9 µM in the data set with Hep-G2 and 130 ± 21.2 µM in the data set with VERO.

As to `CCC1OC(=O)[C@H](C)[C@H](OC2C[C@@](C)(OC)[C@@H](O)[C@H](C)O2)[C@H](C)[C@@H](OC2O[C@H](C)C[C@H](N(C)CCCC#Cc3ccc(-n4cc(C)ccc4=O)cc3)[C@H]2O)[C@@](C)(OC)C[C@@H](C)C(=O)[C@H](C)[C@@H](O)[C@]1(C)O` (some centres unmarked) [Compound 19c], the IC50 was 15.2 ± 0.1 µM in data set [1], 58.6 ± 1.4 µM in the data set on A549, 24 ± 1.2 µM in the data set with Hep-G2 and 55.5 ± 0.4 µM in the data set with VERO.
